In ChEMBL document CHEMBL3817833, “Synthesis and evaluation of antitubercular activity of fluorinated 5-aryl-4-(hetero)aryl substituted pyrimidines” (Bioorg Med Chem, 2016):
Values after ≈ are worked out from the molar mass of the structure shown.

What was measured:
[1] = system: Mycobacterium avium; assay: Antimycobacterial activity against Mycobacterium avium after […] by microbroth dilution method; format: functional
[2] = system: Mycolicibacter terrae; assay: Antimycobacterial activity against Mycobacterium terrae after […] by microbroth dilution method; format: functional
[3] = system: Mycobacterium tuberculosis; assay: Antimycobacterial activity against Mycobacterium tuberculosis H37Rv after […] by microbroth dilution method; format: functional
[4] = Acute toxicity in po dosed mouse administered as single dose measured after 14 days; format: organism-based; conditions: in vivo
[5] = Acute toxicity in po dosed mouse; format: organism-based; conditions: in vivo

Structure (SMILES) | MIC [1] | MIC [2] | MIC [3] | LD50 at 336 h [4] | LD50 [5]
c1ccc(-c2cncnc2)cc1 | 80 µM (≈ 12.5 µg/mL) | 80 µM (≈ 12.5 µg/mL) | 80 µM (≈ 12.5 µg/mL) | – | –
Fc1ccccc1-c1cncnc1 | 71.8 µM (≈ 12.5 µg/mL) | 71.8 µM (≈ 12.5 µg/mL) | 71.8 µM (≈ 12.5 µg/mL) | – | –
Fc1cc(F)cc(-c2cncnc2-c2cccs2)c1 | 45.6 µM (≈ 12.5 µg/mL) | 45.6 µM (≈ 12.5 µg/mL) | 45.6 µM (≈ 12.5 µg/mL) | – | –
Fc1ccc(-c2cncnc2-c2ccco2)cc1 | 52 µM (≈ 12.5 µg/mL) | 52 µM (≈ 12.5 µg/mL) | 52 µM (≈ 12.5 µg/mL) | – | –
Fc1ccc(-c2cncnc2)cc1 | 71.8 µM (≈ 12.5 µg/mL) | 71.8 µM (≈ 12.5 µg/mL) | 71.8 µM (≈ 12.5 µg/mL) | – | –
FC(F)(F)c1cc(-c2cncnc2-c2cccs2)cc(C(F)(F)F)c1 | 33.4 µM (≈ 12.5 µg/mL) | 33.4 µM (≈ 12.5 µg/mL) | 33.4 µM (≈ 12.5 µg/mL) | – | –
Fc1ccc(-c2cncnc2-c2cccs2)cc1 | 12.5 µM (≈ 3.2 µg/mL) | 12.5 µM (≈ 3.2 µg/mL) | 48.8 µM (≈ 12.5 µg/mL) | – | –
Fc1cccc(-c2cncnc2-c2cccs2)c1 | 12.5 µM (≈ 3.2 µg/mL) | 12.5 µM (≈ 3.2 µg/mL) | 48.8 µM (≈ 12.5 µg/mL) | – | –
FC(F)(F)c1cccc(-c2cncnc2-c2cccs2)c1 | 4.9 µM (≈ 1.5 µg/mL) | 4.9 µM (≈ 1.5 µg/mL) | 4.9 µM (≈ 1.5 µg/mL) | – | –
c1ccc(-c2cncnc2-c2ccco2)cc1 | 1.57 µM (≈ 0.349 µg/mL) | 1.57 µM (≈ 0.349 µg/mL) | 1.57 µM (≈ 0.349 µg/mL) | 150 mg/kg | –
c1ccc(-c2cncnc2-c2cccs2)cc1 | 26 µM (≈ 6.2 µg/mL) | 26 µM (≈ 6.2 µg/mL) | 26 µM (≈ 6.2 µg/mL) | – | –
Fc1ccc(-c2cncnc2-c2cccs2)c(F)c1 | 45.6 µM (≈ 12.5 µg/mL) | 45.6 µM (≈ 12.5 µg/mL) | 45.6 µM (≈ 12.5 µg/mL) | – | –
Fc1cccc(-c2cncnc2-c2ccco2)c1 | 6.24 µM (≈ 1.5 µg/mL) | 6.24 µM (≈ 1.5 µg/mL) | 6.24 µM (≈ 1.5 µg/mL) | – | –
Fc1cc(F)cc(-c2cncnc2-c2ccco2)c1 | 24 µM (≈ 6.2 µg/mL) | 24 µM (≈ 6.2 µg/mL) | 24 µM (≈ 6.2 µg/mL) | – | –
FC(F)(F)c1ccccc1-c1cncnc1 | 27.7 µM (≈ 6.2 µg/mL) | 27.7 µM (≈ 6.2 µg/mL) | 27.7 µM (≈ 6.2 µg/mL) | – | –
FC(F)(F)c1ccc(-c2cncnc2)cc1 | 55.8 µM (≈ 12.5 µg/mL) | 55.8 µM (≈ 12.5 µg/mL) | 55.8 µM (≈ 12.5 µg/mL) | – | –
FC(F)(F)c1ccccc1-c1cncnc1-c1cccs1 | 20.2 µM (≈ 6.2 µg/mL) | 20.2 µM (≈ 6.2 µg/mL) | 20.2 µM (≈ 6.2 µg/mL) | – | –
FC(F)(F)c1ccc(-c2cncnc2)c(C(F)(F)F)c1 | 42.8 µM (≈ 12.5 µg/mL) | 42.8 µM (≈ 12.5 µg/mL) | 42.8 µM (≈ 12.5 µg/mL) | – | –

Structure (SMILES) | MIC [1] | MIC [2] | MIC [3] | LD50 at 336 h [4] | LD50 [5]
Fc1ccc(-c2cncnc2)c(F)c1 | 16.1 µM (≈ 3.1 µg/mL) | 16.1 µM (≈ 3.1 µg/mL) | 16.1 µM (≈ 3.1 µg/mL) | – | –
FC(F)(F)c1ccc(-c2cncnc2-c2ccco2)cc1 | 43.1 µM (≈ 12.5 µg/mL) | 43.1 µM (≈ 12.5 µg/mL) | 43.1 µM (≈ 12.5 µg/mL) | – | –
FC(F)(F)c1ccc(-c2cncnc2-c2ccco2)c(C(F)(F)F)c1 | 1.95 µM (≈ 0.699 µg/mL) | 0.98 µM (≈ 0.351 µg/mL) | 1.95 µM (≈ 0.699 µg/mL) | 600 mg/kg | –
Fc1cccc(-c2cncnc2)c1 | 35.9 µM (≈ 6.25 µg/mL) | 35.9 µM (≈ 6.25 µg/mL) | 35.9 µM (≈ 6.25 µg/mL) | – | –
Fc1cc(F)cc(-c2cncnc2)c1 | 3.64 µM (≈ 0.699 µg/mL) | 3.64 µM (≈ 0.699 µg/mL) | 3.64 µM (≈ 0.699 µg/mL) | 300 mg/kg | –
Fc1ccccc1-c1cncnc1-c1cccs1 | 12.5 µM (≈ 3.2 µg/mL) | 12.5 µM (≈ 3.2 µg/mL) | 48.8 µM (≈ 12.5 µg/mL) | – | –
FC(F)(F)c1ccc(-c2cncnc2-c2cccs2)cc1 | 40.8 µM (≈ 12.5 µg/mL) | 40.8 µM (≈ 12.5 µg/mL) | 40.8 µM (≈ 12.5 µg/mL) | – | –
Fc1ccc(-c2cncnc2-c2ccco2)c(F)c1 | 48.4 µM (≈ 12.5 µg/mL) | 48.4 µM (≈ 12.5 µg/mL) | 48.4 µM (≈ 12.5 µg/mL) | – | –
Fc1ccccc1-c1cncnc1-c1ccco1 | 52 µM (≈ 12.5 µg/mL) | 52 µM (≈ 12.5 µg/mL) | 52 µM (≈ 12.5 µg/mL) | – | –
FC(F)(F)c1cccc(-c2cncnc2-c2ccco2)c1 | 43.1 µM (≈ 12.5 µg/mL) | 43.1 µM (≈ 12.5 µg/mL) | 43.1 µM (≈ 12.5 µg/mL) | – | –
FC(F)(F)c1ccc(-c2cncnc2-c2cccs2)c(C(F)(F)F)c1 | 16.6 µM (≈ 6.2 µg/mL) | 16.6 µM (≈ 6.2 µg/mL) | 16.6 µM (≈ 6.2 µg/mL) | – | –
FC(F)(F)c1ccccc1-c1cncnc1-c1ccco1 | 43.1 µM (≈ 12.5 µg/mL) | 43.1 µM (≈ 12.5 µg/mL) | 43.1 µM (≈ 12.5 µg/mL) | – | –
FC(F)(F)c1cccc(-c2cncnc2)c1 | 55.8 µM (≈ 12.5 µg/mL) | 55.8 µM (≈ 12.5 µg/mL) | 55.8 µM (≈ 12.5 µg/mL) | – | –
FC(F)(F)c1cc(-c2cncnc2-c2ccco2)cc(C(F)(F)F)c1 | 8.65 µM (≈ 3.1 µg/mL) | 8.65 µM (≈ 3.1 µg/mL) | 8.65 µM (≈ 3.1 µg/mL) | – | –
FC(F)(F)c1cc(-c2cncnc2)cc(C(F)(F)F)c1 | 5.13 µM (≈ 1.5 µg/mL) | 5.13 µM (≈ 1.5 µg/mL) | 5.13 µM (≈ 1.5 µg/mL) | – | –
NNC(=O)c1ccncc1 [ISONIAZID] | 0.73 µM (≈ 0.1 µg/mL) | 0.73 µM (≈ 0.1 µg/mL) | 0.73 µM (≈ 0.1 µg/mL) | – | –
CC1COc2c(N3CCN(C)CC3)c(F)cc3c(=O)c(C(=O)O)cn1c23 (stereo not given) [OFLOXACIN] | 0.28 µM (≈ 0.101 µg/mL) | 0.28 µM (≈ 0.101 µg/mL) | 0.28 µM (≈ 0.101 µg/mL) | – | 5450 mg/kg
NC(=O)c1cnccn1 [PYRAZINAMIDE] | – | – | 102 µM (≈ 12.5 µg/mL) | – | –
